Results: US8314122B2, “Using of organic solvents in wet granulation of moxifloxacin” (Abdi Ibrahim Ilac Sanayi Ve Ticaret Anonim Sirketi, priority 2008, dated 2012)
“Also recorded” adds a separate entry of the source. Structures can show the parent of a compound that is named as a salt.

Assay: Wet granulation of anhydrous moxifloxacin hydrochloride, crystal form checked by X-ray powder diffractogram
Type: physicochemical
Text: Using of anhydrous moxifloxacin hydrochloride, of which X-ray powder diffractogram could be seen (FIG. 2), in pharmaceutical formulations provides eligible stability therefore preferred rather than moxifloxacin hydrochloride monohydrate. […] It is not desired and it should be prevented.
A wet granulation method with an organic solvent or mixtures of organic solvents is describe herein in which the organic solvent or mixtures of organic solvents are selected from isopropyl alcohol (IPA), acetone, ethanol, dichloromethane and mixtures thereof. […] It is not desired to be converted and thence If conversion is not desired, then granulation should not be performed with water or water mixtures. Anhydrous moxifloxacin hydrochloride should not be exposed to water in the preparation stage. The organic solvent is selected from isopropyl alcohol (IPA), acetone, ethanol, dichloromethane or mixtures thereof in the wet granulation method so as to obtain non-convertible formulations (respectively FIG. 4, FIG. 5, FIG. 6, FIG. 7).
POVIDONE K-30 (polyvinylpyrrolidone) is added to isopropyl alcohol and mixed until the POVIDONE K-30 (polyvinylpyrrolidone) is completely dissolved (Step 1). Moxifloxacin Hydrochloride and Microcrystalline Cellulose are transferred to a granulator and mixed (Step 2). The granulation solution from step 1 is added to the powder mixtures from step 2 and mixed. Wet granules are taken from the granulator to the oven and dried. The granules are sieved. MANNITOL SD 200 (mannitol) and croscarmellose sodium are transferred to the mixtures in the container and mixed. Magnesium stearate is sieved and added to the mixtures in the container and sieved. The blend is tabletted using appropriate punches according to the specifications.

conversion of anhydrous form to moxifloxacin hydrochloride monohydrate (wet granulation with isopropyl alcohol (FIG. 4)): no conversion
Structure (SMILES): COc1c(N2C[C@@H]3CCCN[C@@H]3C2)c(F)cc2c(=O)c(C(=O)O)cn(C3CC3)c12 [anhydrous moxifloxacin hydrochloride]
conversion of anhydrous form to moxifloxacin hydrochloride monohydrate (wet granulation with acetone (FIG. 5)): no conversion to moxifloxacin hydrochloride monohydrate
conversion of anhydrous form to moxifloxacin hydrochloride monohydrate (wet granulation with dichloromethane (FIG. 7)): no conversion to moxifloxacin hydrochloride monohydrate
conversion of anhydrous form to moxifloxacin hydrochloride monohydrate (wet granulation with ethanol (FIG. 6)): no conversion to moxifloxacin hydrochloride monohydrate
conversion of anhydrous form to moxifloxacin hydrochloride monohydrate (wet granulation with water as wetting agent (FIG. 3), hydrochloride): instantly converted to moxifloxacin hydrochloride monohydrate; also recorded: conversion from anhydrous moxifloxacin hydrochloride to moxifloxacin hydrochloride monohydrate
